Measured values reported in patent EP1300145A1, “THERAPEUTIC OR […] FOR MOOD DISORDERS OR ANXIETY DISORDERS” (TORAY INDUSTRIES, INC., priority 2000, dated 2002).

Tests used:
[1] = system: male ICR mice; assay: forced swim test in mice (antidepressant effect); type: in vivo; details: for Immobility time: Saline,s.c. 136.3 ± 11.4; for antidepressant effect: subcutaneous, overall statement in words
From the text: (§1) The isoquinoline derivative represented by formula (I) has a marked effect in the forced swim test, which is the animal model for mood disorder, and in the elevated plus-maze test, which is the animal model for anxiety disorder. Thus, the isoquinoline derivative can be used as a drug for curing or preventing mood disorder or anxiety disorder of mammal and, in particular, human beings. It may also be used in manufacturing of a medicament for curing or preventing mood disorder or anxiety disorder. The evaluation using the above-described animal models can be conducted by a method described in published references [Nature vol. 266, 730 (1977) or Jpn. J. Psychopharmacol vol. 15, 125 (1995)], but the method is not limited to this.
In the experiment, male ICR mice were used. In the forced swim test, the tank for forced swim used was a transparent cylindrical tank made of plastic (inner diameter: 10 cm, height: 30 cm), and water at 25°C was contained up to 14 cm in height. A mouse was placed in water, and its swimming time during 2 to 6 minutes after placement was measured. The drug was subcutaneously administered 30 minutes before testing. The vertical axis indicates the swimming time (sec) during the measurement time (4 min). The open column indicates a saline-treated group and the hatched columns indicate Compound 1 treatment groups. All data are indicated by average ±standard error. In a significance test, the difference was assumed to be significant at a significance level of 5% or less by Dunnett's multiple comparison. In the test, the drug is assumed to have an antidepressant effect when there is an increase in swimming time under administration.
The antidepressant effect of Compound 3, 5, and 6 was assessed as in Example 3. […]

[2] = system: male SD rats; assay: elevated plus-maze test in rats (antianxiety effect); type: in vivo; details: subcutaneous; for Time spent on open arms: 30 minutes after administration, 3 minute test, Saline,s.c. 19.1 ± 6.3; for antianxiety effect: overall statement in words
From the text: as §1
The experiment was conducted on male SD rats. In the elevated plus-maze test, the elevated plus-maze (manufactured by NeuroScience, Inc.) consisting of closed arms and open arms was used. In the experiment, a rat was placed on an open arm 30 minutes after the drug administration (subcutaneous administration), and the number of entries to the open and closed arms and the time spent in the open arms were measured. The test was conducted for 3 minutes. The rat was assumed to have made entries when all four legs have entered the arm. The ratio of the time spent in the open arms and the ratio of the entries to the open arms were calculated according to the following equations: Ratio of the time spent in the open arms (%) = {(time spent in the open arms)/(total time)} × 100 [formula] Ratio of the entries to the open arms (%) = {(number of entries to the open arms)/(total number of entries)} × 100 [formula]
The vertical axis on the left indicates the ratio of the time spent in the open arms (%) and the ratio of the entries to the open arms (%). The vertical axis on the right indicates the total number of entries. The horizontal axis indicates a control group and treatment groups. Open columns indicate the ratio of the time spent in the open arms (%) and hatched columns indicate the ratio of the entries to the open arms (%). Closed circles indicate the total number of entries. All data are indicated by average ±standard error. In a significance test, the difference was assumed to be significant at a significance level of 5% or less by Dunnett's multiple comparison. In the test, the drug is assumed to have an antianxiety effect when there are an increase in time spent on open arms and an increase in ratio of entries to open arms under administration.
The antianxiety effect of Compounds 3, 5, and 6 was assessed as in Example 1. […]

[3] = 30 mg/kg, subcutaneous 30 minutes before testing
[4] = Fig. 1, compared with the control group (saline-treated group), Dunnett's multiple comparison

Row | SMILES | Immobility time [1, 3] | antidepressant effect [1] | Time spent on open arms ([2]; 30 mg/kg) | antianxiety effect [2] | Immobility time ([1]; 10 mg/kg, subcutaneous 30 minutes before testing) | Time spent on open arms ([2]; 10 mg/kg) | swimming time ([1]; subcutaneous 30 minutes before testing, 2 to 6 minutes after placement, Fig. 2, compared with the control group (saline-treated group)) | ratio of the entries to open arms [2, 4] | time spent in open arms [2, 4]
1 | Cc1c2c(nc3ccccc13)C[C@@]1(c3cccc(O)c3)CCN(C)C[C@@H]1C2 (relative stereo) [Compound 3, 2-methyl-4aα-(3-hydroxyphenyl)-11-methyl-1,2,3,4,4a,5,12,12aβ-octahydro-quinolino[2,3-g]isoquinoline] | 75.4 ± 11.6 s | significant antidepressant effect | 36.6 ± 13.2 s | significant antianxiety effects | – | – | – | – | –
2 | CN1CC[C@]2(c3cccc(O)c3)Cc3nc4ccccc4c(N)c3C[C@H]2C1 (relative stereo) [Compound 5, 2-methyl-4aα-(3-hydroxyphenyl)-11-amino-1,2,3,4,4a,5,12,12aβ-octahydro-quinolino[2,3-g]isoquinoline] | – | significant antidepressant effect | – | significant antianxiety effects | 94.3 ± 13 s | 25.4 ± 10.2 s | – | – | –
3 | Oc1cccc([C@]23CCN(CCc4ccccc4)C[C@@H]2Cc2cc4ccccc4nc2C3)c1 (relative stereo) [Compound 6, 2-phenethyl-4aα-(3-hydroxyphenyl)-1,2,3,4,4a,5,12,12aβ-octahydro-quinolino [2,3-g]isoquinoline] | 58.7 ± 9.1 s | significant antidepressant effect | 37.9 ± 4.4 s | significant antianxiety effects | – | – | – | – | –
4 | CN1CC[C@]2(c3cccc(O)c3)Cc3nc4ccccc4cc3C[C@@H]2C1 [Compound 1, (4aS,12aS)-2-methyl-4a-(3-hydroxyphenyl)-1,2,3,4,4a,5,12,12a-octahydroquinolino[2,3-g]isoquinoline] | – | confirmed to have an antidepressant effect | – | confirmed to have an antianxiety effect | – | – | dose-dependent significant increase | dose-dependent significant increase | dose-dependent significant increase
